Measured values taken from ChEMBL document CHEMBL5723582, “Data for DCP probe T-10430” (2024).

Columns and labels:
[1] = target: Leukotriene B4 receptor 1 (Homo sapiens, UniProt Q15722); assay: IP-One assay (LTB4R), agonist mode at up to 50 µM; type: functional; set-up: compound concentration < 50 uM
[2] = target: Adenosine receptor A3 (Homo sapiens) (UniProt P0DMS8); assay: RLU of ADORA3 at 1.0 µM in the […] PRESTO-Tango GPCRome screen; settings: Compound concentration 1.0 uM
[3] = target: Alpha-2A adrenergic receptor (Homo sapiens) (UniProt P08913); assay: RLU of ADRA2A at 1.0 µM in the […] PRESTO-Tango GPCRome screen; settings: Compound concentration 1.0 uM
[4] = target: Alpha-2C adrenergic receptor (Homo sapiens) (UniProt P18825); assay: RLU of ADRA2C at 1.0 µM in the […] PRESTO-Tango GPCRome screen; settings: Compound concentration 1.0 uM
[5] = target: C5a anaphylatoxin chemotactic receptor 1 (Homo sapiens) (UniProt P21730); assay: RLU of C5A at 1.0 µM in the […] PRESTO-Tango GPCRome screen; settings: Compound concentration 1.0 uM
[6] = target: Cysteinyl leukotriene receptor 2 (Homo sapiens) (UniProt Q9NS75); assay: RLU of CYSLTR2 at 1.0 µM in the […] PRESTO-Tango GPCRome screen; settings: Compound concentration 1.0 uM
[7] = target: Endothelin-1 receptor (Homo sapiens) (UniProt P25101); assay: RLU of EDNRA at 1.0 µM in the […] PRESTO-Tango GPCRome screen; settings: Compound concentration 1.0 uM
[8] = target: Proteinase-activated receptor 2 (Homo sapiens) (UniProt P55085); assay: RLU of F2RL1 at 1.0 µM in the […] PRESTO-Tango GPCRome screen; settings: Compound concentration 1.0 uM
[9] = target: Free fatty acid receptor 3 (Homo sapiens) (UniProt O14843); assay: RLU of FFA3 (GPR41) at 1.0 µM in the […] PRESTO-Tango GPCRome screen; settings: Compound concentration 1.0 uM
[10] = target: Gamma-aminobutyric acid type B receptor subunit 1 (Homo sapiens) (UniProt Q9UBS5); assay: RLU of GABBR1 at 1.0 µM in the […] PRESTO-Tango GPCRome screen; settings: Compound concentration 1.0 uM
[11] = target: Gonadotropin-releasing hormone receptor (Homo sapiens) (UniProt P30968); assay: RLU of GNRHR at 1.0 µM in the […] PRESTO-Tango GPCRome screen; settings: Compound concentration 1.0 uM
[12] = target: Probable G-protein coupled receptor 101 (Homo sapiens) (UniProt Q96P66); assay: RLU of GPR101 at 1.0 µM in the […] PRESTO-Tango GPCRome screen; settings: Compound concentration 1.0 uM
[13] = target: Adhesion G protein-coupled receptor D2 (Homo sapiens) (UniProt Q7Z7M1); assay: RLU of GPR144 at 1.0 µM in the […] PRESTO-Tango GPCRome screen; settings: Compound concentration 1.0 uM
[14] = target: Probable G-protein coupled receptor 173 (Homo sapiens) (UniProt Q9NS66); assay: RLU of GPR173 at 1.0 µM in the […] PRESTO-Tango GPCRome screen; settings: Compound concentration 1.0 uM
[15] = target: Probable G-protein coupled receptor 174 (Homo sapiens) (UniProt Q9BXC1); assay: RLU of GPR174 at 1.0 µM in the […] PRESTO-Tango GPCRome screen; settings: Compound concentration 1.0 uM
[16] = target: G-protein coupled receptor 183 (Homo sapiens) (UniProt P32249); assay: RLU of GPR183 at 1.0 µM in the […] PRESTO-Tango GPCRome screen; settings: Compound concentration 1.0 uM
[17] = target: G-protein coupled receptor 26 (Homo sapiens) (UniProt Q8NDV2); assay: RLU of GPR26 at 1.0 µM in the […] PRESTO-Tango GPCRome screen; settings: Compound concentration 1.0 uM
[18] = target: G-protein coupled receptor 3 (Homo sapiens) (UniProt P46089); assay: RLU of GPR3 at 1.0 µM in the […] PRESTO-Tango GPCRome screen; settings: Compound concentration 1.0 uM
[19] = target: Prosaposin receptor GPR37 (Homo sapiens) (UniProt O15354); assay: RLU of GPR37 at 1.0 µM in the […] PRESTO-Tango GPCRome screen; settings: Compound concentration 1.0 uM
[20] = target: Probable G-protein coupled receptor 45 (Homo sapiens) (UniProt Q9Y5Y3); assay: RLU of GPR45 at 1.0 µM in the […] PRESTO-Tango GPCRome screen; settings: Compound concentration 1.0 uM
[21] = target: Probable G-protein coupled receptor 63 (Homo sapiens) (UniProt Q9BZJ6); assay: RLU of GPR63 at 1.0 µM in the […] PRESTO-Tango GPCRome screen; settings: Compound concentration 1.0 uM
[22] = target: G-protein coupled receptor family C group 5 member C (Homo sapiens) (UniProt Q9NQ84); assay: RLU of GPRC5C at 1.0 µM in the […] PRESTO-Tango GPCRome screen; settings: Compound concentration 1.0 uM
[23] = target: Metabotropic glutamate receptor 2 (Homo sapiens) (UniProt Q14416); assay: RLU of GRM2 at 1.0 µM in the Aequorin PRESTO-Tango GPCRome screen; settings: Compound concentration 1.0 uM
[24] = target: Metabotropic glutamate receptor 7 (Homo sapiens) (UniProt Q14831); assay: RLU of GRM7 at 1.0 µM in the Aequorin PRESTO-Tango GPCRome screen; settings: Compound concentration 1.0 uM
[25] = target: Lutropin-choriogonadotropic hormone receptor (Homo sapiens) (UniProt P22888); assay: RLU of LHCGR at 1.0 µM in the […] PRESTO-Tango GPCRome screen; settings: Compound concentration 1.0 uM
[26] = target: Melanin-concentrating hormone receptor 2 (Homo sapiens) (UniProt Q969V1); assay: RLU of MCHR2 at 1.0 µM in the […] PRESTO-Tango GPCRome screen; settings: Compound concentration 1.0 uM
[27] = target: Neuromedin-U receptor 1 (Homo sapiens) (UniProt Q9HB89); assay: RLU of NMUR1 at 1.0 µM in the […] PRESTO-Tango GPCRome screen; settings: Compound concentration 1.0 uM
Opsin-3 (Homo sapiens) = Opsin-3 (Homo sapiens) (UniProt Q9H1Y3); assay: RLU of OPN3 at 1.0 µM in the […] PRESTO-Tango GPCRome screen; settings: Compound concentration 1.0 uM
[28] = target: P2Y purinoceptor 6 (Homo sapiens) (UniProt Q15077); assay: RLU of P2RY6 at 1.0 µM in the […] PRESTO-Tango GPCRome screen; settings: Compound concentration 1.0 uM
[29] = target: Prokineticin receptor 2 (Homo sapiens) (UniProt Q8NFJ6); assay: RLU of PK2 at 1.0 µM in the […] PRESTO-Tango GPCRome screen; settings: Compound concentration 1.0 uM
[30] = target: Prostaglandin E2 receptor EP4 subtype (Homo sapiens) (UniProt P35408); assay: RLU of PTGER4 at 1.0 µM in the […] PRESTO-Tango GPCRome screen; settings: Compound concentration 1.0 uM
[31] = target: Parathyroid hormone/parathyroid hormone-related peptide receptor (Homo sapiens) (UniProt Q03431); assay: RLU of PTH1R at 1.0 µM in the […] PRESTO-Tango GPCRome screen; settings: Compound concentration 1.0 uM
[32] = target: Relaxin-3 receptor 1 (Homo sapiens) (UniProt Q9NSD7); assay: RLU of RXFP3 at 1.0 µM in the […] PRESTO-Tango GPCRome screen; settings: Compound concentration 1.0 uM
[33] = target: Sphingosine 1-phosphate receptor 5 (Homo sapiens) (UniProt Q9H228); assay: RLU of S1PR5 at 1.0 µM in the […] PRESTO-Tango GPCRome screen; settings: Compound concentration 1.0 uM
[34] = target: Trace amine-associated receptor 5 (Homo sapiens) (UniProt O14804); assay: RLU of TAAR5 at 1.0 µM in the […] PRESTO-Tango GPCRome screen; settings: Compound concentration 1.0 uM

Cysteinyl leukotriene receptor 2 (Homo sapiens), sequence (Q9NS75 whole entry): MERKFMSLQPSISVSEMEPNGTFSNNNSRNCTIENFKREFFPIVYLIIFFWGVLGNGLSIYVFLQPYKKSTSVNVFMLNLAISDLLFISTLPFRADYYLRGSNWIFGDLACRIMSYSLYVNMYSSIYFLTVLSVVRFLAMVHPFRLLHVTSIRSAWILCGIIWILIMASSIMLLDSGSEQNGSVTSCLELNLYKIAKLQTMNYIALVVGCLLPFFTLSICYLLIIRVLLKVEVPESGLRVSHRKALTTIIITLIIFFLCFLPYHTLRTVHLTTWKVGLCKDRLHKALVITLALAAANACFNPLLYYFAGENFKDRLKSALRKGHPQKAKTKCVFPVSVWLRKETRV
Melanin-concentrating hormone receptor 2 (Homo sapiens), sequence (Q969V1 whole entry): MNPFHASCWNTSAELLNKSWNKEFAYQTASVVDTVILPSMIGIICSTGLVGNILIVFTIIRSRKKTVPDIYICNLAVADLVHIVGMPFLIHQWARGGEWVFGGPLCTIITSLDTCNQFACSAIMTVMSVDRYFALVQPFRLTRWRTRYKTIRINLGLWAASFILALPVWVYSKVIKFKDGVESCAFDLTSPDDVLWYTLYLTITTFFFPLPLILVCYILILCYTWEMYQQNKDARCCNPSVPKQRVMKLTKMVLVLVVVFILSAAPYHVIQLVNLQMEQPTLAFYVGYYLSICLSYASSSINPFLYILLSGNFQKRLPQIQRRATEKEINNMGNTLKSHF
C5a anaphylatoxin chemotactic receptor 1 (Homo sapiens), sequence (P21730 whole entry): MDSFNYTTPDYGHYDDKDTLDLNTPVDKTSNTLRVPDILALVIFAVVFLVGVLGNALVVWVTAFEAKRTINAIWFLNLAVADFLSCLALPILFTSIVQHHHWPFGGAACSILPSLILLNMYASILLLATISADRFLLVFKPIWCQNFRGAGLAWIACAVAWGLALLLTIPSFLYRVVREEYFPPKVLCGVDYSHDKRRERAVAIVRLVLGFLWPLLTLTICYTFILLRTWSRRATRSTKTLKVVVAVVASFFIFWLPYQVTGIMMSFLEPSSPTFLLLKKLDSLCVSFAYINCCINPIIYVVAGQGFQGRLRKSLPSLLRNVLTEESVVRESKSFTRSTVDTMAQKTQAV
Probable G-protein coupled receptor 174 (Homo sapiens), sequence (Q9BXC1 whole entry): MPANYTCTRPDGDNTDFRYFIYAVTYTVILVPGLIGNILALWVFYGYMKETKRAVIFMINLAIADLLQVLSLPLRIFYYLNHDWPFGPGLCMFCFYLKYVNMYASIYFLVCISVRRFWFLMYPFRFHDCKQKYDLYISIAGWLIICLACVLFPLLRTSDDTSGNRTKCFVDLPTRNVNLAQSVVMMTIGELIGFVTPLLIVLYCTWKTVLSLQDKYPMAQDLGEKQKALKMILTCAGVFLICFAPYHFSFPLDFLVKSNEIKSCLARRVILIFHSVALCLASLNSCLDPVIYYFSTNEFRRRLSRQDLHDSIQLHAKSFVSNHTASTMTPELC
Probable G-protein coupled receptor 63 (Homo sapiens), sequence (Q9BZJ6 whole entry): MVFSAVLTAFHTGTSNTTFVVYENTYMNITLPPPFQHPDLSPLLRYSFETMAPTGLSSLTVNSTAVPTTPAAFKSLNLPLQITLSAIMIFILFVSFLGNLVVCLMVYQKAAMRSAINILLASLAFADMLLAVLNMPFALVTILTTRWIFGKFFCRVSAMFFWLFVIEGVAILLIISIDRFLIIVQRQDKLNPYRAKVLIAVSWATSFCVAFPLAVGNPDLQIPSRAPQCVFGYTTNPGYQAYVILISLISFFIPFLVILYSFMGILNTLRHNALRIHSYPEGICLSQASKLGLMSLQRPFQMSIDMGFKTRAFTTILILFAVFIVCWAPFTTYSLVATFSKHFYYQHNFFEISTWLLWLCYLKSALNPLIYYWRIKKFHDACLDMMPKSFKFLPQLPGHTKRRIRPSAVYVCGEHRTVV
Free fatty acid receptor 3 (Homo sapiens), sequence (O14843 whole entry): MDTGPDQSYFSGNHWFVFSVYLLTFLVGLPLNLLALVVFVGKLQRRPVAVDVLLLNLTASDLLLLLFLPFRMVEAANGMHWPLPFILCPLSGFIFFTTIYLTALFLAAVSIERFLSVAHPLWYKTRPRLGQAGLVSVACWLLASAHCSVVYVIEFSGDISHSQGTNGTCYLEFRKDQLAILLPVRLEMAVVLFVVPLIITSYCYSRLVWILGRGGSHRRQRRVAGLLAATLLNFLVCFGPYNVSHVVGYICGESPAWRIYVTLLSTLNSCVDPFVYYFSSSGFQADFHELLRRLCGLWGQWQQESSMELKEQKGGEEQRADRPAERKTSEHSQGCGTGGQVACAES
Lutropin-choriogonadotropic hormone receptor (Homo sapiens), sequence (P22888 whole entry): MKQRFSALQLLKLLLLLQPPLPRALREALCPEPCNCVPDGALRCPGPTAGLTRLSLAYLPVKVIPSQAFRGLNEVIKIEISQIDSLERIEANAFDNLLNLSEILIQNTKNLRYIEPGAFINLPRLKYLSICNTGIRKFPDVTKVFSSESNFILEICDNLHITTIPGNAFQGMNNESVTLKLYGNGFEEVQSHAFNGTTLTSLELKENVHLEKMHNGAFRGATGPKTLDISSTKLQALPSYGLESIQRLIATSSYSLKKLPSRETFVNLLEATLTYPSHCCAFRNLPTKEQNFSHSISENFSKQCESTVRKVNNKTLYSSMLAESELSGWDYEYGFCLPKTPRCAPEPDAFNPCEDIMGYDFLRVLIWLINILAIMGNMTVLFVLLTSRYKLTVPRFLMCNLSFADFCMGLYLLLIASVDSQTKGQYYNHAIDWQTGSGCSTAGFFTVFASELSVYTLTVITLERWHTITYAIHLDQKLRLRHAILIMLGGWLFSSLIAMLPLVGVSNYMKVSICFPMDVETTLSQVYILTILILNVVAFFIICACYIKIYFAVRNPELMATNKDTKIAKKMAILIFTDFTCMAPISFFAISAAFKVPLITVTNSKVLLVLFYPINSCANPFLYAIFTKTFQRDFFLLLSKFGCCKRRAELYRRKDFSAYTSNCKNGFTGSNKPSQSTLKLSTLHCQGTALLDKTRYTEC
Probable G-protein coupled receptor 45 (Homo sapiens), sequence (Q9Y5Y3 whole entry): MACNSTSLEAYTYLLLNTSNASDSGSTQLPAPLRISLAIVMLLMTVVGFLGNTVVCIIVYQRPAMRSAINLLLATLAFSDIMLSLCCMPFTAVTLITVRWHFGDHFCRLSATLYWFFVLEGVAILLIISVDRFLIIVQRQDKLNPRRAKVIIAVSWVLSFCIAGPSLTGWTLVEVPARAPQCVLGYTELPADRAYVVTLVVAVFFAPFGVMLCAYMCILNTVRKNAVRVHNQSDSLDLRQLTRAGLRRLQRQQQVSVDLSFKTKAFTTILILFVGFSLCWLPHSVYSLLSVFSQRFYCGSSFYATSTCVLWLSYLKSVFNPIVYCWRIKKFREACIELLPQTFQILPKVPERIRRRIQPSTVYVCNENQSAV
Leukotriene B4 receptor 1, sequence (Q15722 whole entry): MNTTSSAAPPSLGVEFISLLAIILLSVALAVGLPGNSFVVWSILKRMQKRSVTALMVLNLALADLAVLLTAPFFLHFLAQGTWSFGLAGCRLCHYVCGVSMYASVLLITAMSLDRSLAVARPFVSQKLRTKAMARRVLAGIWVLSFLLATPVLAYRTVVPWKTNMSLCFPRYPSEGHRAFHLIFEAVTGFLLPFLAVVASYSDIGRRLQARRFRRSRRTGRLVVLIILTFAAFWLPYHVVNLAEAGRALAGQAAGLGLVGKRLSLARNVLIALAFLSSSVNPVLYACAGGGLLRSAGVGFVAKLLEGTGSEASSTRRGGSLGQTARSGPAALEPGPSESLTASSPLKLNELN
Metabotropic glutamate receptor 7 (Homo sapiens), sequence (Q14831 whole entry): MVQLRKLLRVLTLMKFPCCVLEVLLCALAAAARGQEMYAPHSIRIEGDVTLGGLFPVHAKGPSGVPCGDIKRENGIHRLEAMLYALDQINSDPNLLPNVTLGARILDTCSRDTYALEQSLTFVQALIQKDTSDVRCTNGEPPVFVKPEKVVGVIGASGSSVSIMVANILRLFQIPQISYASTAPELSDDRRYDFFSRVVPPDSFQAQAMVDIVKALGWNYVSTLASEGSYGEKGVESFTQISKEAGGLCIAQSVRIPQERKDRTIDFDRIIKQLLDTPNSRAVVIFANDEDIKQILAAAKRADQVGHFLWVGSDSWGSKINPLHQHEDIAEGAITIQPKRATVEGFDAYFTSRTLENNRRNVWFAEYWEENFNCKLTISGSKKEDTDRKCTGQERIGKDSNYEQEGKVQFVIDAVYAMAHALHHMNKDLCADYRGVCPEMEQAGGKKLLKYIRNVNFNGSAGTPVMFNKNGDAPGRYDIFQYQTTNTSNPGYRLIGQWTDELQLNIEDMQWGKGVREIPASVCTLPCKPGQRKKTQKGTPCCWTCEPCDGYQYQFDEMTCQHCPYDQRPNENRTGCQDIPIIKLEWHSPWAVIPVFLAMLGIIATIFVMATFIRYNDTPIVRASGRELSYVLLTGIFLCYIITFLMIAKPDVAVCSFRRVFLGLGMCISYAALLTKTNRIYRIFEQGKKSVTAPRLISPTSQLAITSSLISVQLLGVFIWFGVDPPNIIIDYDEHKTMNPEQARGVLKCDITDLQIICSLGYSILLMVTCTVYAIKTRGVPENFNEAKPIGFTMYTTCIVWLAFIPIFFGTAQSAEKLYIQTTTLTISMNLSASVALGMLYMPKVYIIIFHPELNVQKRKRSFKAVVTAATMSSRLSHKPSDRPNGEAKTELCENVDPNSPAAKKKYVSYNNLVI
G-protein coupled receptor family C group 5 member C (Homo sapiens), sequence (Q9NQ84 whole entry): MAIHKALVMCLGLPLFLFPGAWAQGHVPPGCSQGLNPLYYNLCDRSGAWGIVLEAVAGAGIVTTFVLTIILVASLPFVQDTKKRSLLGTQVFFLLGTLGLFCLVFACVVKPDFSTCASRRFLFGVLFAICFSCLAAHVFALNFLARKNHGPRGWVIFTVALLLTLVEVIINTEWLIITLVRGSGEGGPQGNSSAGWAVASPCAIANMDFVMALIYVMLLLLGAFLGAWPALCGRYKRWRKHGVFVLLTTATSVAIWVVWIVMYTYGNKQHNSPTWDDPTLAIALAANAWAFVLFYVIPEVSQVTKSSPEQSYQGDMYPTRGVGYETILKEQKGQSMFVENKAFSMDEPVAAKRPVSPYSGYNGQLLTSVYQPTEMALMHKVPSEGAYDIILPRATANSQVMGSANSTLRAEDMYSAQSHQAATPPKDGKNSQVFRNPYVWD

EC50 [1]: > 50 µM (not active) | RLU [2]: 506 | RLU [3]: 10100 | RLU [4]: 12100 | RLU [6]: -3190 | RLU [7]: -1160 | RLU [8]: -1270 | RLU [9]: 1880 | RLU [10]: 3390 | RLU [11]: -3090 | RLU [12]: -2170 | RLU [13]: 917 | RLU [14]: -36.4 | RLU [15]: -102 | RLU [16]: -6100 | RLU [17]: -187 | RLU [18]: -1780 | RLU [19]: -1510 | RLU [20]: 963 | RLU [21]: -87.9 | RLU [22]: 3560 | RLU [23]: -1460 | RLU [24]: 6950 | RLU [25]: 154 | RLU [26]: 1.74 | RLU [27]: 1950 | RLU (Opsin-3 (Homo sapiens)): 338 | RLU [28]: -7240 | RLU [29]: -566 | RLU [30]: 620 | RLU [31]: 13.4 | RLU [32]: 6610 | RLU [33]: 2920 | RLU [34]: 821
SMILES: CCCCC(=O)N1CC2(C1)CN(c1ccccc1-c1nnn[nH]1)C2
RLU [5]: 2280
